# Assay results: US20220296628A1, “RNA COMBINATIONS AND COMPOSITIONS WITH DECREASED IMMUNOSTIMULATORY PROPERTIES” (CureVac AG, priority 2019, published 2022)
# Tests used:
# [1] = test system: mice (strain 129SV); assay: PpLuc expression in liver lysates after i.v. injection of LNP-formulated PpLuc mRNA with or without oligonucleotide; assay type: in vivo, mouse; details: 24 hours post i.v. injection, 10 μg or 30 μg mRNA (either dose), compared to PpLuc mRNA without oligonucleotide (FIG. 3)
# Description: For preparation of Lipid nanoparticles (LNP) containing both PpLuc mRNA and 2-O-methylated oligonucleotide, first the 2′-O-methylated oligonucleotide was added to PpLuc mRNA at a weight percentage of either 20% or 6.7% (see Table 3). LNP containing PpLuc mRNA either with or without admixture of 2-O-methylated oligonucleotide were prepared using cationic lipid, cholesterol, PEG-lipid and a neutral lipid. The mRNA was diluted to 1 g/L in citrate buffer, pH 4. The ethanolic lipid solution was mixed with the aqueous RNA solution at a ratio of 1:3 (vol/vol) using a Nanoassemblr (PrecisionNanoSystems). The ethanol was then removed and the buffer replaced by 10 mM HEPES, pH 7.4 comprising 9% Sucrose by dialysis. Finally, the LNP-formulated RNA was adjusted to 0.2 g/L.
# For in vivo experiments, 8 weeks old female mice (around 25 g, strain 129SV) were injected with the various LNP formulations (see tables 4 and 5). 4 animals were used per group. […]
# To prepare tissue lysates, first a steal bead was added to each liver. […] Plates were introduced into a plate reader (Berthold Technologies TriStar2 LB 942) and 50 μl per well of Beetle-Juice (PJK GmbH) containing luciferin as substrate for firefly luciferase was injected. Luciferase activity was quantified as relative light units (RLU). […]
# [2] = test system: human peripheral blood mononuclear cells (PBMCs); assay: PBMC stimulation: DOTAP co-transfection of immunostimulatory non-coding RNA (RNAdjuvant) with oligonucleotide, cytokines by CBA; assay type: cell-based; details: DOTAP co-transfection with RNAdjuvant 1 μg/ml, oligonucleotide 0.25 μg/ml (25% weight), supernatant 24 hours, compared to immunostimulatory non-coding RNA only (FIG. 1A)
# Description: Human peripheral blood mononuclear cells (PBMCs) were isolated from heparinized blood of healthy volunteers by standard Ficoll-Hypaque density gradient centrifugation (Ficoll 1.078 g/ml). PBMCs were re-suspended in RPMI 1640 supplemented with 10% heat-inactivated FCS. After counting, cells are re-suspended at 50 million cells per ml in fetal calf serum, 10% DMSO, and frozen. Before usage, the cells are thawed.
# For transfection experiments, 2×10^5 human PBMCs per well were seeded into each well of a 96-well plate in X-Vivo 15 medium (Lonza). For preparation of DOTAP complexes containing both immunostimulatory non-coding RNA and a 2′-O-methylated oligonucleotide (SEQ ID NO: 85), the oligonucleotide was first added to immunostimulatory non-coding RNA at a weight percentage of 25%. For preparation of DOTAP complexes containing both PpLuc mRNA and a 2′-O-methylated oligonucleotide, the oligonucleotide was first added to PpLuc mRNA at a weight percentage of 25%. The molar ratio of PpLuc mRNA to oligonucleotide was thus […] (MW (Oligonucleotide)=2907 g/mol, MW (PpLuc mRNA)=652377 g/mol). DOTAP complexes containing either immunostimulatory non-coding RNA or PpLuc mRNA without or with oligonucleotide were formed at a ratio of 3 μl of DOTAP per 1 μg of RNAdjuvant or 1 μg of mRNA. […] To quantify background stimulation, PBMC were incubated either with DOTAP alone (“vehicle”) or medium only. […]
# In supernatants collected from PBMC stimulated without or with 2-O-methylated oligonucleotide, the concentrations of IFN-α, IFN-γ, TNF, were measured by Cytometric Bead Array (CBA) according to the manufacturer's instructions (BD Biosciences) using the following kits: Human Soluble Protein Master Buffer Kit (catalog no. 558264), Assay Diluent (catalog no. 560104), Human IFN-α Flex Set (catalog no. 560379), Human IFN-γ Flex Set (catalog no. 558269), Human TNF Flex Set (catalog no. 560112); all kits from BD Biosciences. The data was analyzed using the FCAP Array v3.0 software (BD Biosciences).
substance,measurement,setting,value
"5′-GAG CGmG CCA-3′ (GAGCNGCCA; 2'-O-methyl guanosine at position 5; 9mer oligonucleotide; modified_base (5)..(5) n can be any nucleotide, wherein the nucleotide is 2-O-methylated, preferably a 2-O-methylated guanosine) [Gm18, 9-mer 2′-O-methylated RNA oligonucleotide; position 5 is 2′-O-methylated guanosine (Gm); antagonist of TLR7 and 8]",expression of PpLuc in liver lysates (luciferase activity),[1],increases the expression
same,secretion of cytokine INF-a,[2],reduced secretion
same,secretion of cytokine INF-y,[2],reduced secretion
same,secretion of cytokine TNF,[2],reduced secretion
